“And” between values parts separate entries of the source, which are not always exact repeats. Equal values may be shown once. Toxic doses and inconclusive results are not listed.
System: P388 leukemia ip, CD2F1 mice, survival T/C
Test: NCI In Vivo Anticancer Drug Screen. Data for tumor model P388 Leukemia (intraperitoneal) in CD2F1 (CDF1) mice
Conditions: endpoint: median survival time, higher = longer survival
In short: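 Mice carrying the transplanted tumor received test compound or vehicle. Survival was recorded in each group, and the value is the treated-group measurement divided by that of the vehicle-treated control group.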

[1] = dose: 50.0 mg/kg/injection, schedule: Q01DX009 (ip), vehicle: saline with Tween-80
[2] = dose: 100.0 mg/kg/injection, schedule: Q01DX009 (ip), vehicle: saline with Tween-80
[3] = dose: 200.0 mg/kg/injection, schedule: Q01DX009 (ip), vehicle: saline with Tween-80
[4] = dose: 100.0 mg/kg/injection, schedule: Q04DX003 (ip), vehicle: saline with Tween-80
[5] = dose: 200.0 mg/kg/injection, schedule: Q04DX003 (ip), vehicle: saline with Tween-80
[6] = dose: 50.0 mg/kg/injection, schedule: Q01DX005 (ip), vehicle: saline with Tween-80
[7] = dose: 100.0 mg/kg/injection, schedule: Q01DX005 (ip), vehicle: saline with Tween-80
[8] = dose: 200.0 mg/kg/injection, schedule: Q01DX005 (ip), vehicle: saline with Tween-80
[9] = dose: 50.0 mg/kg/injection, schedule: Q01DX009 (ip), vehicle: Klucel (hydroxypropylcellulose) (HPC)
[10] = dose: 100.0 mg/kg/injection, schedule: Q01DX009 (ip), vehicle: Klucel (hydroxypropylcellulose) (HPC)
[11] = dose: 200.0 mg/kg/injection, schedule: Q01DX009 (ip), vehicle: Klucel (hydroxypropylcellulose) (HPC)

For `O=c1[nH]nc(/C=C/C=C/c2ccccc2)c(=O)[nH]1`, the T/C (dose: 100.0 mg/kg/injection, schedule: Q01DX001 (ip), vehicle: saline) was 97 % of control, the T/C (dose: 200.0 mg/kg/injection, schedule: Q01DX001 (ip), vehicle: saline) was 101 % of control and the T/C (dose: 400.0 mg/kg/injection, schedule: Q01DX001 (ip), vehicle: saline) was 90 % of control.
In the case of `CC1(C)/C=C/C2=Nc3cc(Br)c(Br)c(Br)c3C23CC(=O)N3/C=C(\Cl)c2nc(Br)[nH]c21` (stereo not drawn), the T/C (dose: 0.7 mg/kg/injection, schedule: Q01DX005 (ip), vehicle: Klucel (hydroxypropylcellulose) (HPC)) is reported as 106 % of control, the T/C (dose: 1.4 mg/kg/injection, schedule: Q01DX005 (ip), vehicle: Klucel (hydroxypropylcellulose) (HPC)) is reported as 101 % of control and the T/C (dose: 2.8 mg/kg/injection, schedule: Q01DX005 (ip), vehicle: Klucel (hydroxypropylcellulose) (HPC)) is reported as 97 % of control. The T/C (dose: 5.6 mg/kg/injection, schedule: Q01DX005 (ip), vehicle: Klucel (hydroxypropylcellulose) (HPC)) was 112 % of control.
`O=[n+]1c2c(n([O-])c3cc(Cl)c(Cl)cc31)CCCC2` was tested, and the T/C (dose: 12.5 mg/kg/injection, schedule: Q01DX009 (ip), vehicle: saline with Tween-80) was 87 % of control, the T/C (dose: 25.0 mg/kg/injection, schedule: Q01DX009 (ip), vehicle: saline with Tween-80) was 89 % of control and the T/C [1] was 98 % of control and 86 % of control.
With `C[n+]1c(-c2ccc(/C=N\Nc3nnc(S)n3/N=C/c3ccc(-c4cn5ccccc5[n+]4C)cc3)cc2)cn2ccccc21` the T/C (dose: 0.23 mg/kg/injection, schedule: Q01DX005 (ip), vehicle: saline with Tween-80) was 101 % of control, the T/C (dose: 0.47 mg/kg/injection, schedule: Q01DX005 (ip), vehicle: saline with Tween-80) was 92 % of control and the T/C (dose: 0.94 mg/kg/injection, schedule: Q01DX005 (ip), vehicle: saline with Tween-80) was 95 % of control. For the same compound, the T/C (dose: 1.88 mg/kg/injection, schedule: Q01DX005 (ip), vehicle: saline with Tween-80) was 100 % of control.
In the case of `C=CCOc1cc2c(cc1C(C)(C)c1ccc(OC)cc1)OCO2`, the T/C (dose: 60.0 mg/kg/injection, schedule: Q01DX005 (ip), vehicle: saline with Tween-80) is reported as 118 % of control and the T/C (dose: 120.0 mg/kg/injection, schedule: Q01DX005 (ip), vehicle: saline with Tween-80) is reported as 117 % of control.
In the case of `Cc1ccc(C(O)(c2nc3ccccc3s2)c2nc3ccccc3s2)cc1`, the T/C [1] is reported as 101 % of control, the T/C [2] is reported as 112 % of control and the T/C [3] is reported as 113 % of control.
With `COc1ccc2nc3cc(Cl)ccc3c(NCCCCNc3c4ccc(Cl)cc4nc4ccc(OC)nc34)c2n1` the T/C [4] was 102 % of control and the T/C [5] was 118 % of control.
For `Cc1cc(C)nc(NS(=O)(=O)c2ccc(N=Cc3c4ccccc4nc4cc(Cl)ccc34)cc2)n1`, the T/C [6] was 93 % of control, the T/C [7] was 93 % of control and the T/C [8] was 93 % of control.
In the case of `Oc1cc2c(cc1O)[C@H]1c3ccc(O)c(O)c3OC[C@@]1(O)C2`, the T/C (dose: 6.25 mg/kg/injection, schedule: Q01DX009 (ip), vehicle: saline) is reported as 100 % of control, the T/C (dose: 12.5 mg/kg/injection, schedule: Q01DX009 (ip), vehicle: saline) is reported as 101 % of control and the T/C (dose: 25.0 mg/kg/injection, schedule: Q01DX009 (ip), vehicle: saline) is reported as 112 % of control. For the same compound, the T/C (dose: 50.0 mg/kg/injection, schedule: Q01DX009 (ip), vehicle: saline) was 122 % of control, the T/C (dose: 100.0 mg/kg/injection, schedule: Q01DX009 (ip), vehicle: saline) was 113 % of control and the T/C (dose: 200.0 mg/kg/injection, schedule: Q01DX009 (ip), vehicle: saline) was 115 % of control.
`COC(=O)C(Cc1c[nH]c2ccccc12)NC(=O)C(CCCCN)N(C(=O)OCc1ccccc1)C(=O)OCc1ccccc1` (stereo not drawn) was tested, and the T/C [6] was 92 % of control, the T/C [7] was 91 % of control and the T/C [8] was 86 % of control.
In the case of `CC1CCCCN1CCCNC(=O)Nc1ccc(Cc2ccc(NC(=O)NCCCN3CCCCC3C)cc2)cc1` (stereo not drawn), the T/C (dose: 0.79 mg/kg/injection, schedule: Q01DX009 (ip), vehicle: Klucel (hydroxypropylcellulose) (HPC)) is reported as 95 % of control and the T/C (dose: 1.56 mg/kg/injection, schedule: Q01DX009 (ip), vehicle: Klucel (hydroxypropylcellulose) (HPC)) is reported as 97 % of control.
With `C/C=C1\CN2CCC34c5ccccc5N(C)C35OCC4(C(=O)OC)C1CC25` (stereo not drawn) the T/C (dose: 5.25 mg/kg/injection, schedule: Q01DX005 (ip), vehicle: saline + Tween-80 + alcohol) was 100 % of control, the T/C (dose: 10.5 mg/kg/injection, schedule: Q01DX005 (ip), vehicle: saline + Tween-80 + alcohol) was 92 % of control and the T/C (dose: 21.0 mg/kg/injection, schedule: Q01DX005 (ip), vehicle: saline + Tween-80 + alcohol) was 98 % of control. The T/C (dose: 42.0 mg/kg/injection, schedule: Q01DX005 (ip), vehicle: saline + Tween-80 + alcohol) was 96 % of control.
`N#CC1CCCC(CCc2ccccc2)(c2ccccc2)C1=O` (stereo not drawn) was tested, and the T/C [9] was 101 % of control, the T/C [10] was 104 % of control and the T/C [11] was 98 % of control.
`O=C1C=CC(=O)C1=Cc1ccc([N+](=O)[O-])cc1` was tested, and the T/C (dose: 2.5 mg/kg/injection, schedule: Q04DX002 (ip), vehicle: saline with Tween-80) was 100 % of control, the T/C (dose: 5.0 mg/kg/injection, schedule: Q04DX002 (ip), vehicle: saline with Tween-80) was 104 % of control and the T/C (dose: 10.0 mg/kg/injection, schedule: Q04DX002 (ip), vehicle: saline with Tween-80) was 101 % of control. For the same compound, the T/C (dose: 25.0 mg/kg/injection, schedule: Q04DX002 (ip), vehicle: saline with Tween-80) was 96 % of control and the T/C (dose: 50.0 mg/kg/injection, schedule: Q04DX002 (ip), vehicle: saline with Tween-80) was 98 % of control.
`CC(=O)OC1CCC2(C)C(CCC3C2CCC2(C)C3CC(CC(=O)O)C2OC(C)=O)C1` (stereo not drawn) was tested, and the T/C (dose: 25.0 mg/kg/injection, schedule: Q01DX009 (ip), vehicle: Klucel (hydroxypropylcellulose) (HPC)) was 92 % of control, the T/C [9] was 92 % of control and the T/C [10] was 93 % of control. The T/C [11] was 97 % of control.
`CN/N=C/c1ccc(O)c(OC)c1` was tested, and the T/C [4] was 100 % of control, the T/C [5] was 100 % of control and the T/C (dose: 400.0 mg/kg/injection, schedule: Q04DX003 (ip), vehicle: saline with Tween-80) was 100 % of control.
`CC[C@@H]1C[C@@H]2CN3CCc4c([nH]c5cc(Cc6ccc(OC)c(OC)c6)c(OC)cc45)C(C(=O)OC)(C2)C13` was tested, and the T/C (dose: 0.5 mg/kg/injection, schedule: Q01DX009 (ip), vehicle: Klucel (hydroxypropylcellulose) (HPC)) was 96 % of control, the T/C (dose: 1.0 mg/kg/injection, schedule: Q01DX009 (ip), vehicle: Klucel (hydroxypropylcellulose) (HPC)) was 107 % of control and the T/C (dose: 2.0 mg/kg/injection, schedule: Q01DX009 (ip), vehicle: Klucel (hydroxypropylcellulose) (HPC)) was 111 % of control. For the same compound, the T/C (dose: 4.0 mg/kg/injection, schedule: Q01DX009 (ip), vehicle: Klucel (hydroxypropylcellulose) (HPC)) was 107 % of control and 97 % of control, the T/C (dose: 8.0 mg/kg/injection, schedule: Q01DX009 (ip), vehicle: Klucel (hydroxypropylcellulose) (HPC)) was 101 % of control and the T/C (dose: 16.0 mg/kg/injection, schedule: Q01DX009 (ip), vehicle: Klucel (hydroxypropylcellulose) (HPC)) was 98 % of control.
With `Cc1[nH]cnc1CSCCN=C(N)n1[nH]cc(C)c1=O` the T/C (dose: 60.0 mg/kg/injection, schedule: Q01DX005 (ip), vehicle: Klucel (hydroxypropylcellulose) (HPC)) was 111 % of control, the T/C (dose: 120.0 mg/kg/injection, schedule: Q01DX005 (ip), vehicle: Klucel (hydroxypropylcellulose) (HPC)) was 100 % of control and the T/C (dose: 240.0 mg/kg/injection, schedule: Q01DX005 (ip), vehicle: Klucel (hydroxypropylcellulose) (HPC)) was 99 % of control.
For `CC[C@@]1(O)C[C@H]2CN(CCc3c([nH]c4ccccc34)[C@@](C(=O)OC)(c3cc4c(cc3OC)N[C@H]3[C@@](O)(C(=O)OC)[C@H](OC(C)=O)[C@]5(CC)C=CCN6CC[C@]43[C@@H]65)C2)C1`, the T/C (dose: 16.0 mg/kg/injection, schedule: Q01DX001 (ip), vehicle: water) was 153 % of control and 164 % of control.
`CCC(=O)c1cc(Cl)ccc1O` was tested, and the T/C (dose: 37.5 mg/kg/injection, schedule: Q01DX001 (ip), vehicle: other) was 104 % of control, the T/C (dose: 75.0 mg/kg/injection, schedule: Q01DX001 (ip), vehicle: other) was 100 % of control and the T/C (dose: 150.0 mg/kg/injection, schedule: Q01DX001 (ip), vehicle: other) was 100 % of control.
With `O=C(c1ccccc1)C(C(c1ccccc1)N1CCOCC1)N1CCOCC1` (stereo not drawn) the T/C [2] was 94 % of control, the T/C [3] was 94 % of control and the T/C (dose: 400.0 mg/kg/injection, schedule: Q01DX009 (ip), vehicle: saline with Tween-80) was 94 % of control.
With `CC(O)C(NC(=O)OC(C)(C)C)C(=O)O` (stereo not drawn) the T/C (dose: 50.0 mg/kg/injection, schedule: Q01DX005 (ip), vehicle: saline) was 103 % of control, the T/C (dose: 100.0 mg/kg/injection, schedule: Q01DX005 (ip), vehicle: saline) was 104 % of control and the T/C (dose: 200.0 mg/kg/injection, schedule: Q01DX005 (ip), vehicle: saline) was 102 % of control.
